# From PMC12069340 (Frontiers in Cellular and Infection Microbiology, 2025)
# Structures can show the parent of a compound that is named as a salt. Where two headings read alike, the source gives them in different places.
# How the values were obtained:
# [1] = system: A/PuertoRico/8/1934 (H1N1) virus; assay: microbe, parasite or virus in culture; format: cell-based, influenza A virus
# [2] = in vitro; settings: human, Relative Viability (%)
# [3] = Influenza A virus, H1N1, U-937, 48 h; read-out: NA Inhibition (%)
# [4] = Influenza A virus, H1N1, U-937, 48 h, read-out: NA Inhibition (%)
compound,measurement,setting,value
CC(C)N(CCC(c1ccccc1)c1cc(CO)ccc1O)C(C)C (stereo not drawn) [5-hydroxymethyl Tolterodine],NA Inhibition (%),[1]; 20 µM,6.5%
O=C(c1ccc(F)cc1)N1CCC[C@H](c2nc(-c3ccc(F)cc3)no2)C1 [ADX-47273],NA Inhibition (%),[1]; 20 µM,34.4%
CNCC(=O)c1ccc(O)c(O)c1.Cl [Adrenalone HCl],NA Inhibition (%),[1]; 20 µM,6.4%
COC(=O)C1=CCCN(C)C1 [Arecoline],inhibition at 20 µM,[1]; [3],-10.6%
CN1CC2c3ccccc3Oc3ccc(Cl)cc3C2C1 (stereo not drawn) [Asenapine],viability at 20 µM,[2],87.1%
CN1[C@@H]2CC[C@H]1C[C@@H](OC(=O)C(CO)c1ccccc1)C2 (stereo partly drawn) [Atropine],inhibition at 20 µM,[1]; [3],-5.8%
COc1ccccc1N1CCN(CCN2C(=O)CC3(CCCC3)CC2=O)CC1 [BMY 7378],inhibition at 20 µM,[1]; [3],23.8%
OC(CN1CCN(c2cccc(Cl)c2)CC1)C(c1ccccc1)c1ccccc1 (stereo not drawn) [BRL-15572],NA Inhibition (%),[1]; 20 µM,24.4%
CN1CCC(c2c[nH]c3ccc(O)cc23)CC1 [BRL-54443],NA Inhibition (%),[1]; 20 µM,23.6%
O=C(O)CCCN1CCC(O[C@@H](c2ccc(Cl)cc2)c2ccccn2)CC1.O=S(=O)(O)c1ccccc1 [Bepotastine Besilate],NA Inhibition (%),[1]; 20 µM,21.1%
CNCCc1ccccn1.Cl.Cl [Betahistine 2HCl],NA Inhibition (%),[1]; 20 µM,4.8%
CN(C)CCC(c1ccc(Br)cc1)c1ccccn1.O=C(O)/C=C\C(=O)O (stereo not drawn) [Brompheniramine hydrogen maleate],NA Inhibition (%),[1]; 20 µM,12.4%
Cc1nc(C#Cc2ccnc(Cl)c2)c(C)n1-c1ccc(OC(F)(F)F)cc1 [CTEP (RO4956371)],NA Inhibition (%),[1]; 20 µM,31.0%
CCC1=C[C@@H]2CN3CCc4c([nH]c5ccccc45)[C@@](C(=O)OC)(C2)[C@@H]13 [Catharanthine],NA Inhibition (%),[1]; 20 µM,42.3%
CN1CCC[C@@H]1CCO[C@](C)(c1ccccc1)c1ccc(Cl)cc1 [Clemastine Fumarate],viability at 20 µM,[2],88.5%
CN(C)CCCN1c2ccccc2CCc2ccc(Cl)cc21 [Clomipramine HCl],inhibition at 20 µM,[1]; [4],-11.3%
CN1CCC(=C2c3ccccc3C=Cc3ccccc32)CC1 [Cyproheptadine HCl],inhibition at 20 µM,[1]; [3],4.6%
Cc1cccc([C@H](C)c2cnc[nH]2)c1C [Dexmedetomidine],NA Inhibition (%),[1]; 20 µM,21.4
COc1cc2c(cc1OC)C(=O)C(CC1CCN(Cc3ccccc3)CC1)C2 (stereo not drawn) [Donepezil HCl],inhibition at 20 µM,[1]; [4],4.5%
CC(C)(C)c1ccc(C(=O)CCCN2CCC(OC(c3ccccc3)c3ccccc3)CC2)cc1 [Ebastine],viability at 20 µM,[2],105%
CN1CCC[C@@H]1Cc1c[nH]c2ccc(CCS(=O)(=O)c3ccccc3)cc12 [Eletriptan HBr],inhibition at 20 µM,[1]; [3],20.2%
CNC[C@H](O)c1ccc(O)c(O)c1 [Epinephrine HCl],inhibition at 20 µM,[1]; [4],7.1%
CC(C)(C(=O)O)c1ccc(C(O)CCCN2CCC(C(O)(c3ccccc3)c3ccccc3)CC2)cc1 (stereo not drawn) [Fexofenadine HCl],inhibition at 20 µM,[1]; [4],-9.9%
CC[N+](CC)(CC)CCOc1cccc(OCC[N+](CC)(CC)CC)c1OCC[N+](CC)(CC)CC [Gallamine Triethiodide],inhibition at 20 µM,[1]; [3],-9%
Cl.Cl.NCCc1c[nH]cn1 [Histamine 2HCl],NA Inhibition (%),[1]; 20 µM,2.5
C[N+]1(C)[C@@H]2CC[C@H]1C[C@@H](OC(=O)C(O)c1ccccc1)C2 (stereo partly drawn) [Homatropine Methylbromide],inhibition at 20 µM,[1]; [3],-12%
Br.Br.NCCCCCNCC12CC3CC(CC(C3)C1)C2 [IEM 1754 dihydrobroMide],NA Inhibition (%),[1]; 20 µM,23.2%
CCc1cc2c(cc1CC)CC(NC[C@H](O)c1ccc(O)c3[nH]c(=O)ccc13)C2 [Indacaterol Maleate],inhibition at 20 µM,[1]; [3],-6%
CN1CCN(C(=O)c2cc3cc(Cl)ccc3[nH]2)CC1 [JNJ-7777120],inhibition at 20 µM,[1]; [4],19.7%
CCc1ccc(OCc2ccccc2C(=O)Nc2ccc3nc(C)cc(N)c3c2)cc1 [JTC-801],NA Inhibition (%),[1]; 20 µM,41.4%
CCN(CC)CC(=O)Nc1c(C)cccc1C [Lidocaine],inhibition at 20 µM,[1]; [3],5.1%
"C[C@]12N[C@H](Cc3ccccc31)c1ccccc12 [MK-801 (Dizocilpine), Dizocilpine]",inhibition at 20 µM,[1]; [4],20.9%
Cc1cccc(C#Cc2ccccc2)n1 [MPEP],NA Inhibition (%),[1]; 20 µM,32.6%
CNCCCC12CCC(c3ccccc31)c1ccccc12 [Maprotiline HCl],inhibition at 20 µM,[1]; [4],-23.2%
C=CCN1CC[C@]23c4c5ccc(O)c4O[C@H]2C(=O)CC[C@@]3(O)[C@H]1C5 [Naloxone HCl],inhibition at 20 µM,[1]; [4],25.4%
c1ccc2c(CC3=NCCN3)cccc2c1 [Naphazoline HCl],inhibition at 20 µM,[1]; [3],-18.7%
O=C(O)c1cccnc1Nc1cccc(C(F)(F)F)c1 [Niflumic acid],inhibition at 20 µM,[1]; [3],23.7%
Cc1ccccc1C(OCCN(C)C)c1ccccc1 (stereo not drawn) [Orphenadrine Citrate],viability at 20 µM,[2],106%
CCCCCCCCOc1ccccc1C(=O)Nc1ccc(C(=O)OCC[N+](C)(CC)CC)cc1 [Otilonium Bromide],inhibition at 20 µM,[1]; [3],-2.3%
COc1cc(OC)c(NC(=O)Nc2cc(C)on2)cc1Cl [PNU-120596],NA Inhibition (%),[1]; 20 µM,-38.3%
CC(COc1ccccc1)N(CCCl)Cc1ccccc1 (stereo not drawn) [Phenoxybenzamine HCl],inhibition at 20 µM,[1]; [3],95.4%
CNC[C@H](O)c1cccc(O)c1 [Phenylephrine HCl],inhibition at 20 µM,[1]; [4],4.9%
COCCCN1CCC(NC(=O)c2cc(Cl)c(N)c3c2OCC3)CC1 [Prucalopride],inhibition at 20 µM,[1]; [4],20.7%
CC(C)c1cc(-c2ccc(F)c3ccccc23)nc(N)n1 [RS-127445],NA Inhibition (%),[1]; 20 µM,20.3%
CC(=O)SCC(Cc1ccccc1)C(=O)NCC(=O)OCc1ccccc1 (stereo not drawn) [Racecadotril],inhibition at 20 µM,[1]; [4],-29.5%
CC(NCCc1ccc(O)cc1)C(O)c1ccc(O)cc1 (stereo not drawn) [Ritodrine HCl],inhibition at 20 µM,[1]; [3],-20.6%
Cc1cncc(CN2CCC(=C3c4ccc(Cl)cc4CCc4cccnc43)CC2)c1.O=C(O)/C=C/C(=O)O [Rupatadine Fumarate],NA Inhibition (%),[1]; 20 µM,22.5%
COc1ccc(NS(=O)(=O)c2sc3ccc(Cl)cc3c2C)cc1N1CCNCC1.Cl [SB271046 HCl],NA Inhibition (%),[1]; 20 µM,18.8%
O=S(=O)(c1ccccc1)c1cnc2c(N3CCNCC3)cccc2c1 [SB742457],inhibition at 20 µM,[1]; [3],16.8%
CN1[C@@H]2CC(O)C[C@H]1[C@@H]1O[C@@H]12 (stereo partly drawn) [Scopine],NA Inhibition (%),[1]; 20 µM,-19.4%
CN1[C@@H]2C[C@@H](OC(=O)[C@H](CO)c3ccccc3)C[C@H]1[C@@H]1O[C@@H]12 [Scopolamine HBr],inhibition at 20 µM,[1]; [4],-0.4%
CN1c2ccccc2C(NCCCCCCC(=O)[O-])c2ccc(Cl)cc2S1(=O)=O.[Na+] (stereo not drawn) [Tianeptine sodium],NA Inhibition (%),[1]; 20 µM,4.5%
C[N+]1(C)[C@@H]2C[C@@H](OC(=O)C(O)(c3cccs3)c3cccs3)C[C@H]1[C@@H]1O[C@@H]12 [Tiotropium Bromide hydrate],inhibition at 20 µM,[1]; [3],-34.7%
Cc1ccc(O)c([C@H](CCN(C(C)C)C(C)C)c2ccccc2)c1 [Tolterodine tartrate],inhibition at 20 µM,[1]; [4],-12%
O=c1n(CCCN2CCN(c3cccc(Cl)c3)CC2)nc2ccccn12 [Trazodone HCl],inhibition at 20 µM,[1]; [4],-9.8%
CCCCOc1ccc(C(=O)Nc2ccc(F)cc2F)cc1 [VU 0357121],NA Inhibition (%),[1]; 20 µM,29.7%
COc1cc(NC(=O)c2ccccn2)ccc1Cl [VU 0361737],inhibition at 20 µM,[1]; [4],23.5%
O=C(Nc1cccc(Cl)c1)c1ccccn1 [VU 0364770],NA Inhibition (%),[1]; 20 µM,28.5%
CN1CCN(c2nc3ccccc3nc2Cl)CC1 [VUF 10166],NA Inhibition (%),[1]; 20 µM,7.6%
COc1ccccc1N1CCN(CCN(C(=O)C2CCCCC2)c2ccccn2)CC1.O=C(O)/C=C\C(=O)O [WAY-100635 Maleate],NA Inhibition (%),[1]; 20 µM,9.1%
Cc1cccc(C)c1N=C1NCCCS1 [Xylazine HCl],inhibition at 20 µM,[1]; [3],-20%
(-)-MK 801 Maleate,NA Inhibition (%),[1]; 20 µM,26.1%
L-Adrenaline,NA Inhibition (%),[1]; 20 µM,-38.4
